Experimental data reported in US8772268B2, “Bisphosphonamidate prodrugs and uses thereof” (The Johns Hopkins University, priority 2010, dated 2014).

Legend:
OPVCAR-5 = assay: NCI-60 DTP Human Tumor Cell Line Screen; type: cell-based; settings: OPVCAR-5, Ovarian Cancer, 48 h
[1] = tested on: MDA-MB-453 (breast) cancer cell line; assay: MTS cell proliferation assay, MDA-MB-453; type: cell-based
Method: Cell proliferation was determined using the CellTiter 96 Aqueous One Solution Cell Proliferation Assay MTS assay. A549 NSCLC cells were plated at 1.5×10^3 cells per well in flat bottom 96 well plates in 99 μL of media and allowed to adhere overnight. The drugs were serially diluted in 100% DMSO. For each drug treatment group, 1 μL of a 100× stock solution was added to each well for a final DMSO concentration of 1%. Cells were treated for 24, 48 or 72 hours. Cells were incubated with MTS dye (20 μL well^−1) for 40 min to 2 h. Absorbance at 490 nm was determined using a SpectraMax M2 (Molecular Devices) plate reader. The percent cell proliferation was calculated by converting the experimental absorbance to percentage of control, which was then plotted vs. drug concentration. The IC50 values were determined using a non-linear dose-response analysis in GraphPad Prism version 4.0. The IC50 is defined as the concentration of drug needed to cause a 50% decrease in proliferation compared to vehicle control.
The activity of Clodronate prodrug (14) was tested against other cell lines, include prostate (PIP3) and breast (MDA-MB-453) cancer cells lines. Cell proliferation was determined using the CellTiter 96 Aqueous One Solution Cell Proliferation Assay MTS assay as discussed above. Results are shown in FIG. 22 and in the table below.

SMILES: CN(CCCCCl)P(=O)(OCc1ccc([N+](=O)[O-])cc1)C(Cl)(Cl)P(=O)(OCc1ccc([N+](=O)[O-])cc1)N(C)CCCCCl (stereo not shown) [compound 14]
- Log10GI50 (OPVCAR-5): −5.45
- Log10LC50 (OPVCAR-5): >−4.00
- Log10TGI (OPVCAR-5): >−4.00
- EC50 [1]: 9 µM
